Data as given in publication PMC11604954 (Nature Communications, 2024).

System: PBMCs from A*02:01 COVID-19 convalescent individuals
Format: cell-based, human

Question: Which ELISpot response frequency does the source give for YLQPRTFLL here?
Answer: The ELISpot response frequency was ~ 44%.

Question: And the “ELISpot: HLA-matched individuals responding / tested” value?
Answer: Its value is 11 out of 25.
